Structures can show the parent of a compound that is named as a salt.
Tests used:
[1] = tested on: undesired urotoxic side effects caused by cytostatically active alkylating agents; conditions: background, cited from earlier work; for protective activity against cytostatically active alkylating agents: cysteine compared with salts of mercapto alkane sulfonic acids, cystine = corresponding disulfide; for effect of introducing solutions into the urinary bladder by catheter: instillation, in particular cytostatics at very high dosages
[2] = tested on: kidneys, urinary tracts and urinary bladder; assay: urotoxic side effects in cancer patients treated with ifosfamide (hematuria, albuminuria, damage to kidney and urinary bladder); assay type: in vivo, human; conditions: for hematuria under ifosfamide therapy without thiol/disulfide protection: 5 times per day, 5 days
Description: In accordance with the known practice of therapy a patient and suffering from a theratoid carcinoma of the testicle, at first is subjected to irradiation and thereafter is treated with ifosfamide [i.e. 2-(N-2-chloroethyl-amino)-3-(2-chloroethyl)-2-oxo-1,3,2-oxazaphosphorinane] at 5 times per day, each time with 60 mg./kg. intravenously and at 5 subsequent days. The patient is simultaneously hydrated by administration of 4 liters of water spread over the day and is alkalinized by administration of hexapotassium hexasodium pentacitrate hydrate complex. […] This necessitated immediate rupture of the therapy. After a recovery period of 14 days, the therapy is repeated. However, 60 mg/kg. of the disodium salt of 2,2'-dithiodi-(ethane sulfonic acid) is administered intravenously and simultaneously with each dose of 60 mg/kg. of ifosfamide. The patient is controlled daily for micro- and […] and for albuminuria.
In another patient suffering from the same tumor, the therapy at first is started with the oral administration of 60 mg./kg. of the disodium salt of 2.2'-dithiodi-(ethane sulfonic acid). Two hours thereafter, 60 mg./kg. of ifosfamide are administered intravenously. The same treatment, i.e. the combination of an oral preadministration of the disodium salt of 2,2'-dithiodi-(ethane sulfonic acid) and a subsequent intravenous administration of 60 mg./kg. of ifosfamide is repeated at 5 subsequent days. […] In both the above treatments a moderate hydration (2 liters per day) has been carried out. The treatment rendered superfluous alkalinization as well as the most burdensome instillation of mercapto group containing compounds into the bladder of the patient by means of a catheter.
According to the general experience with such patients, there occurs very readily […] despite application of all known prophylactic treatments such as hydration, alkalinization or instillation of mercapto group containing compounds into the urinary bladder.
(§1) In accordance with the known practice of therapy, a patient and suffering from a cancer of the ovary, at first is subjected to irradiation and thereafter is treated with ifosfamide [i.e. 2-(N-2-chloroethyl-amino)-3-(2-chloroethyl)-2-oxo-1,3,2-oxazaphosphorinane] at 5 times per day, each time with 60 mg./kg. intravenously and at 5 subsequent days. […] After a recovery period of 14 days the therapy is repeated. However, 35 mg./kg. of the sodium salt of 2-mercapto ethane sulfonic acid is administered intravenously and simultaneously with each dose of 60 mg./kg. of ifosfamide, 60, 120 and, respectively, 180 minutes after this intravenous injection 45 mg. of the disodium salt of 2,2'-dithiodi-(ethanesulfonic acid) each time are administered to the patient. The patient is controlled daily for micro- and macrohematuria and for albuminuria. […] The examination of the urine upon cytotoxic activity at varying times after administration of ifosfamide also was negative.
The same protective treatment was effected with the same favourable results in patients suffering from other cancer deceases such as parvicellular bronchial carcinoma or pancreatic carcinoma.

[3] = examination of the urine upon cytotoxic activity / cytostatically active metabolites after administration of ifosfamide; assay type: in vivo, human; conditions: Example 4: same combination with sodium salt of 2-mercapto ethane sulfonic acid
Description: as §1

Structure (SMILES): N[C@@H](CSSC[C@H](N)C(=O)O)C(=O)O [cystine]
- protective activity against cytostatically active alkylating agents [1]: does not have any such protective activity

Structure (SMILES): O=S(=O)(O)CCSSCCS(=O)(=O)O [disodium salt of 2,2'-dithiodi-(ethanesulfonic acid)]
- erythrocytes, albumina or granular cylindrical cells in the urine ([2]; Example 1: 60 mg/kg i.v. simultaneously with each dose of 60 mg/kg ifosfamide, same patient after 14 days recovery): At no time during the treatment erythrocytes, albumina or granular cylindrical cells were found in the urine of the patient
- damage to kidney or urinary bladder, hematuria, albumina or granular cylindrical cells in the urine ([2]; Example 2: 60 mg/kg oral, two hours before ifosfamide 60 mg/kg i.v., 5 subsequent days, moderate hydration 2 liters per day): no indication of any damage to the kidney or the urinary bladder or of hematuria or of albumina or granular cylindrical cells in the urine of the patient at any time during the treatment
- damage to the kidneys and the urinary bladder ([2]; Example 3: 60 mg/kg i.v. simultaneously with ifosfamide 60 mg/kg i.v. single dose over 5 days, patient sensibilized by regional radiotherapy): there did not occur any damage to the kidneys and the urinary bladder
- hematuria or albuminuria ([2]; Example 4: 35 mg/kg sodium salt of 2-mercapto ethane sulfonic acid i.v. simultaneously with ifosfamide 60 mg/kg, then 45 mg disodium salt of 2,2'-dithiodi-(ethanesulfonic acid) at 60, 120 and 180 minutes): no indication of hematuria or albuminuria
- cytostatically active metabolites in the urine ([3]; after ifosfamide): No cytostatically active metabolites were found in the urine
- cytotoxic activity of the urine ([3]; varying times after ifosfamide): negative

Structure (SMILES): O=P1(NCCCl)OCCCN1CCCl (stereo not shown) [ifosfamide, 2-(N-2-chloroethyl-amino)-3-(2-chloroethyl)-2-oxo-1,3,2-oxazaphosphorinane]
- hematuria under ifosfamide therapy without thiol/disulfide protection ([2]; Example 1: ifosfamide 60 mg/kg i.v., with hydration 4 liters and alkalinization, testicular carcinoma patient): macrohematuria already on the fourth day
- hematuria under ifosfamide therapy without thiol/disulfide protection ([2]; Example 4: ifosfamide 60 mg/kg i.v., with hydration and alkalinization, patient with cancer of the ovary): microhematuria

Structure (SMILES): N[C@@H](CS)C(=O)O [cysteine]
- protective activity against cytostatically active alkylating agents [1]: limited but distinct protective activity
- effect of introducing solutions into the urinary bladder by catheter [1]: very limited

Structure (SMILES): CC(=O)N[C@@H](CS)C(=O)O [N-acetylcysteine]
- clinical effectiveness of the instillation prophylaxis ([1]; instillation into urinary bladder with cyclophosphamide and ifosfamide at very high dosages): by no means was satisfactory
- effect of introducing solutions into the urinary bladder by catheter [1]: very limited

— patent US4218471A, “Process for the treatment of humans suffering from undesired urotoxic side effects caused by cytostatically active alkylating agents” (Asta-Werke Aktiengesellschaft Chemische Fabrik, priority 1978, dated 1980)
